Data on 16 compounds can be found in patent US10259810B2, “N-sulfonylated pyrazolo[3,4-b]pyridin-6-carboxamides and method of use” (AbbVie S.à.r.l., priority 2015, dated 2019).

Assay type in all cases: cell-based
The target of assay [1] is T1, CFTR ΔF508 (Homo sapiens, UniProt P13569, DEL508-508).
T1 construct: bronchial epithelial cells isolated from CF patients homozygous for the CFTR ΔF508 mutation; McGill University; Asterand; University of North Carolina hAEC-CF; host or cells: primary human bronchial epithelial cells from CF patients homozygous for ΔF508, differentiated at air-liquid interface
Description: Chronic TECC assay, primary bronchial epithelial cells of CF patients homozygous for CFTR ΔF508 (corrector, co-corrector and potentiator). The conditions noted are these: for % Activity at 1 μM (Ieq*) / % Activity at 1 μM (AUC**): test compound at 1 μM. The protocol:
Primary Bronchial Epithelial Cells Protocol
The TECC (Tranepithelial Clamp Circuit, EP-design) assay measures the functionality of the cystic fibrosis Transmembrane Conductance regulator (CFTR) by measuring the short circuit current (Isc) generated over the basolateral and apical membrane of lung epithelial cells. In TECC the transepithelial potential PD and transepithelial resistance (Rt) are measured in an open circuit and transformed to Ieq using Ohm's law. 24 Wells can be measured simultaneously allowing a higher throughput compared to Ussing chambers.
For this purpose, bronchial epithelial cells isolated from CF patients homozygous for the CFTR ΔF508 mutation (hAEC-CF, Epithelix, Geneva, Switzerland; McGill University, Montreal, Qc; Asterand, Detroit, Mich.; University of North Carolina, Chapel Hill, N.C.) are plated on type IV collagen-coated Transwell® supports (Costar).
For electrophysiological recording of the “chronic” experiments, the human airway epithelia are mounted in the TECC heating plate for electrophysiological measurement and kept at 37° C. The epithelia are bathed in a NaCl-Ringer solution (120 mM NaCl, 25 mM NaHCO3, 1.2 mM CaCl2, 1.2 mM MgCl2, 0.8 mM KH2PO4, 0.8 mM K2HPO4, pH 7.4, 5 mM glucose) on both the basolateral and apical sides. Test compounds (corrector, co-corrector, 4-[(2R,4R)-4-({[1-(2,2-difluoro-1,3-benzodioxol-5-yl)cyclopropyl]carbonyl}amino)-7-(difluoromethoxy)-3,4-dihydro-2H-chromen-2-yl]benzoic acid, and potentiator, N-(3-carbamoyl-5,5,7,7-tetramethyl-4,7-dihydro-5H-thieno[2,3-c]pyran-2-yl)-1H-pyrazole-5-carboxamide), are re-added to the recording solution prior to measurement. […] Apical amiloride is used to inhibit the endogenous ENaC currents while forskolin is applied on both apical and basolateral side to stimulate CFTR. Measurements are done during a 20 minute timeframe with recordings every 2 minutes. The increase in Ieq is used as a measure for the increased CFTR activity, EC50 values can be generated by measuring impact of different concentrations of compound on Ieq on primary cells, for this purpose each transwell is treated with a different compound concentration. […] Raw data were normalized to percentage activity values using the equation: 100×(Sample−Negative control)/(Positive control−Negative Control).

For assay [2], the target named is T2, ΔF508-CFTR (Homo sapiens, UniProt P13569, DEL508-508).
T2 construct: host or cells: CFBE41o-, doxycycline-inducible
Put plainly: CFTR cell surface levels using HRP-tagged ΔF508-CFTR expressing CFBE cells, in the presence of a co-corrector. To be noted: HRP-tagged ΔF508-CFTR CFBE cells, in the presence of 3 μM co-corrector; for pEC50: read-out: EC50. In a few lines:
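Chemiluminescent read-out of surface HRP (15 min, dark) after PBS washes. Activity is normalized as 100×(sample−DMSO)/(3 μM co-corrector alone−DMSO).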

Assay [3] has as its target T2, ΔF508-CFTR. Put plainly: CFTR cell surface levels using HRP-tagged ΔF508-CFTR expressing CFBE cells, intrinsic corrector capacity. Details: % Activation: concentration or dose not given beside the values. To be noted: HRP-tagged ΔF508-CFTR expressing CFBE41o- cells, compound alone (intrinsic corrector capacity), 20 hours at 33° C.; for pEC50: read-out: EC50. In a few lines:
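Surface ΔF508-CFTR was measured as HRP chemiluminescence from an extracellular-loop-4 tag, expressed as percent activity between DMSO and a […] corrector control.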

Setting [4] is: chronic TECC, Ieq = calculations based on the maximum current, read-out: EC50 (nM) (Ieq*).
The mark [5] stands for this setting: chronic TECC, Ieq = calculations based on the maximum current.
Setting [6] is: chronic TECC, AUC = full area under the curve upon forskolin stimulation, read-out: EC50 (nM) (AUC**).
[7] abbreviates: chronic TECC, AUC = full area under the curve upon forskolin stimulation.

The structures appear in SMILES notation. pEC50: −log10 of the molar value. Read-outs that look alike come from different tables or passages of the source.

T1 sequence (P13569 with tags, fused parts or gaps DEL508-508): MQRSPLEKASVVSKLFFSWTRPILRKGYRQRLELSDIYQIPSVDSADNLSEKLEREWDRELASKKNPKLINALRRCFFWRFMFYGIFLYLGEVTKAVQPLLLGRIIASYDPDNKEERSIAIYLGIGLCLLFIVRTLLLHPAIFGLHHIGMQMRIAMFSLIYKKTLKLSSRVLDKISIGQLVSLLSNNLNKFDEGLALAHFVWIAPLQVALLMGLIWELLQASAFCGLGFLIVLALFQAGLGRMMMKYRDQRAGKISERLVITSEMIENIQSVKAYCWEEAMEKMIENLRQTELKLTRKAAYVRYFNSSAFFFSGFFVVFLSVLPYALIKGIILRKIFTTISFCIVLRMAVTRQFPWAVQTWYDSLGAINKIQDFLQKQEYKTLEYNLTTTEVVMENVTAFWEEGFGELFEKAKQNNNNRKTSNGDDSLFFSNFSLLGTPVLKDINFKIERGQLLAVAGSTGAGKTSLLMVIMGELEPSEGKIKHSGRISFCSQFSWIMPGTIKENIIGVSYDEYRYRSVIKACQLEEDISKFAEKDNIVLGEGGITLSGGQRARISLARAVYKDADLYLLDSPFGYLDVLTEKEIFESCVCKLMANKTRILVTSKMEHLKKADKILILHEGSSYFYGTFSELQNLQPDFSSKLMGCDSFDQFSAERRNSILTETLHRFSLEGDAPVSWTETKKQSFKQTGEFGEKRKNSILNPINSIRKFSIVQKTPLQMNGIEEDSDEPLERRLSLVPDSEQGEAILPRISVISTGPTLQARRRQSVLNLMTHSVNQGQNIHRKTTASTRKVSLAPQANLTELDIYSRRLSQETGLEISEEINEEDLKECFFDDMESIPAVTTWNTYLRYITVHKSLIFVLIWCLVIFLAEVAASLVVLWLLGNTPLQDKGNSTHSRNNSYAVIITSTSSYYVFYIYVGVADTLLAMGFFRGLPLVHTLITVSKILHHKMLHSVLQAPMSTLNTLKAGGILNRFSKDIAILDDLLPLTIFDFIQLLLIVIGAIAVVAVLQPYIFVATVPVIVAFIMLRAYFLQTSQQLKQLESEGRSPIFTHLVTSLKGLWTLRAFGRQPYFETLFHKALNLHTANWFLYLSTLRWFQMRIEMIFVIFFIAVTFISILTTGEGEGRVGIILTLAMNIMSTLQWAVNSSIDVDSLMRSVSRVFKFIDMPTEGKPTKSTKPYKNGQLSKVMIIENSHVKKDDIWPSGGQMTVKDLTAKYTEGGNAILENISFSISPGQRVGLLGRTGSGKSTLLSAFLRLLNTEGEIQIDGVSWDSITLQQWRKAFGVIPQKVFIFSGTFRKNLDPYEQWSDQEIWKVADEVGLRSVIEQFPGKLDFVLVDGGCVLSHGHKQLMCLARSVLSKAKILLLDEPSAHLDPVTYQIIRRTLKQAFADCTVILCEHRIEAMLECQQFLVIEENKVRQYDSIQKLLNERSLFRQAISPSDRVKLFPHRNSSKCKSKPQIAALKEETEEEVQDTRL
T2 sequence (P13569 with tags, fused parts or gaps DEL508-508): as above

For orientation: EC50 means the midpoint of the concentration-response curve. For `COCCN(C)c1ccc(-c2cc(C(=O)NS(C)(=O)=O)nc3c2c(C2CCC2)nn3-c2ccccc2)cn1` [Compound 63, 3-cyclobutyl-N-(methanesulfonyl)-4-{6-[(2-methoxyethyl)(methyl)amino]pyridin-3-yl}-1-phenyl-1H-pyrazolo[3,4-b]pyridine-6-carboxamide], the 50% effective concentration (EC50) in assay [1] (setting [4]) is 40 nM. The “% Activity at 1 μM (Ieq*)” value in assay [1] (setting [5]) is on record as 325%.
As for `COCCN(C)c1ccc(-c2cc(C(=O)NS(C)(=O)=O)nc3c2c(C2CCC2)nn3-c2ccccc2)cc1` [Compound 75, 3-cyclobutyl-N-(methanesulfonyl)-4-{4-[(2-methoxyethyl)(methyl)amino]phenyl}-1-phenyl-1H-pyrazolo[3,4-b]pyridine-6-carboxamide], the EC50 in assay [1] (setting [4]) was 30 nM. Further, the “% Activity at 1 μM (Ieq*)” value in assay [1] (setting [5]) is listed as 316%.
For `COC1CCN(c2cc(C(=O)NS(C)(=O)=O)nc3c2c(C2CCC2)nn3-c2ccccc2)CC1` [Compound 142, 3-cyclobutyl-N-(methanesulfonyl)-4-(4-methoxypiperidin-1-yl)-1-phenyl-1H-pyrazolo[3,4-b]pyridine-6-carboxamide], the EC50 in assay [1] (setting [6]) was less than 300 nM. Besides, the “% Activity at 1 μM (AUC**)” value in assay [1] (setting [7]) was found to be 250%.
The term pEC50 denotes the EC50 on a negative log10 scale, so that one unit is a factor of ten. On to `CS(=O)(=O)NC(=O)c1cc(N2CCC(N3CCOCC3)CC2)c2c(C3CCC3)nn(-c3ccccc3)c2n1` [Compound 328, 3-cyclobutyl-N-(methanesulfonyl)-4-[4-(morpholin-4-yl)piperidin-1-yl]-1-phenyl-1H-pyrazolo[3,4-b]pyridine-6-carboxamide], for which the pEC50 in assay [1] is 7.02.
`COC1CCN(C2CCN(c3cc(C(=O)NS(=O)(=O)N(C)C)nc4c3c(C3CCC3)nn4-c3ccc(F)cc3)CC2)CC1` [Compound 381, 3-cyclobutyl-N-(dimethylsulfamoyl)-1-(4-fluorophenyl)-4-(4-methoxy[1,4'-bipiperidin]-1'-yl)-1H-pyrazolo[3,4-b]pyridine-6-carboxamide]: in assay [1] (setting [6]), the EC50 amounted to 4100 nM. In addition, the “% Activity at 3 μM (AUC**)” value in assay [1] (chronic TECC, test compound at 3 μM, AUC = full area under the curve upon forskolin stimulation) is 441%.
With `CN(C)S(=O)(=O)NC(=O)c1cc(N2CCC(N3CCOCC3)CC2)c2c(C3CCC3)nn(-c3ccc(F)cc3)c2n1` [Compound 408, 3-cyclobutyl-N-(dimethylsulfamoyl)-1-(4-fluorophenyl)-4-[4-(morpholin-4-yl)piperidin-1-yl]-1H-pyrazolo[3,4-b]pyridine-6-carboxamide], the EC50 in assay [1] (setting [6]) is 21 nM. For the same compound, the “% Activity at 1 μM (AUC**)” value in assay [1] (setting [7]) is listed as 430%.
For the compound `O=C(c1cc(N2CCC(CN3CCCC3)CC2)c2c(C3CCC3)nn(-c3ccccc3)c2n1)N1CCCCS1(=O)=O` [Compound 663, 2-(3-cyclobutyl-1-phenyl-4-{4-[(pyrrolidin-1-yl)methyl]piperidin-1-yl}-1H-pyrazolo[3,4-b]pyridine-6-carbonyl)-1λ^6,2-thiazinane-1,1-dione], the “% Activation” value in assay [2] is on record as 206.5%; in assay [3] it was 57.9%. Moreover, the negative logarithm of the EC50 (pEC50) is 6.99 in assay [2] and 6.63 in assay [3].
For the compound `CN1CCCN(C(=O)c2cc(N3CCC(N4CCOCC4)CC3)c3c(C4CCC4)nn(-c4ccccc4)c3n2)S1(=O)=O` [Compound 664, 2-{3-cyclobutyl-4-[4-(morpholin-4-yl)piperidin-1-yl]-1-phenyl-1H-pyrazolo[3,4-b]pyridine-6-carbonyl}-6-methyl-1λ^6,2,6-thiadiazinane-1,1-dione], in assay [2], the “% Activation” value was 230.48% and the negative logarithm of the EC50 (pEC50) was 6.76. Further, in assay [3], the “% Activation” value was found to be 70.082% and the pEC50 was 6.56.
Consider `O=C(c1cc(N2CCC(N3CCOCC3)CC2)c2c(C3CCC3)nn(-c3ccccc3)c2n1)N1CCCS1(=O)=O` [Compound 665, 2-{3-cyclobutyl-4-[4-(morpholin-4-yl)piperidin-1-yl]-1-phenyl-1H-pyrazolo[3,4-b]pyridine-6-carbonyl}-1λ^6,2-thiazolidine-1,1-dione], for which the “% Activation” value in assay [2] was determined as 271.8%; in assay [3], 101.9%. The pEC50 in assay [2] was 7.00; in assay [3], 6.59.
As for `O=C(c1cc(N2CCC(N3CCOCC3)CC2)c2c(C3CCC3)nn(-c3ccccc3)c2n1)N1CCCCS1(=O)=O` [Compound 666, 2-{3-cyclobutyl-4-[4-(morpholin-4-yl)piperidin-1-yl]-1-phenyl-1H-pyrazolo[3,4-b]pyridine-6-carbonyl}-1λ^6,2-thiazinane-1,1-dione], the “% Activation” value in assay [2] turned out to be 266.6%; in assay [3], 99.775%. The pEC50 in assay [2] was 6.92; in assay [3], 6.59.
Taken in the same sequence, the figures for `COCC1CCN(c2cc(C(=O)N3CCCS3(=O)=O)nc3c2c(C2CCC2)nn3-c2ccccc2)CC1` [Compound 667, 2-{3-cyclobutyl-4-[4-(methoxymethyl)piperidin-1-yl]-1-phenyl-1H-pyrazolo[3,4-b]pyridine-6-carbonyl}-1λ^6,2-thiazolidine-1,1-dione] were 225.5%, 75.435%, 7.07 and 6.68.
For the compound `COCC1CCN(c2cc(C(=O)N3CCCCS3(=O)=O)nc3c2c(C2CCC2)nn3-c2ccccc2)CC1` [Compound 668, 2-{3-cyclobutyl-4-[4-(methoxymethyl)piperidin-1-yl]-1-phenyl-1H-pyrazolo[3,4-b]pyridine-6-carbonyl}-1λ^6,2-thiazinane-1,1-dione], in assay [2], the “% Activation” value was 307.4% and the pEC50 was 6.59. In assay [3], the “% Activation” value turned out to be 89.495% and the pEC50 was 6.42.
In the case of `CNS(=O)(=O)NC(=O)c1cc(N2CCC(COC)CC2)c2c(C3CCC3)nn(-c3ccc(F)cc3)c2n1` [Compound 669, 3-cyclobutyl-1-(4-fluorophenyl)-4-[4-(methoxymethyl)piperidin-1-yl]-N-(methylsulfamoyl)-1H-pyrazolo[3,4-b]pyridine-6-carboxamide], in assay [2], the “% Activation” value was determined as 394% and the pEC50 is 6.61. Further, in assay [3], the “% Activation” value is given as 334.9% and the pEC50 was 6.67.
As for `COCCS(=O)(=O)NC(=O)c1cc(N2CCC(COC)CC2)c2c(C3CCC3)nn(-c3ccc(F)cc3)c2n1` [Compound 670, 3-cyclobutyl-1-(4-fluorophenyl)-N-(2-methoxyethanesulfonyl)-4-[4-(methoxymethyl)piperidin-1-yl]-1H-pyrazolo[3,4-b]pyridine-6-carboxamide], in assay [2], the “% Activation” value is on record as 477.6% and the pEC50 is 6.72. Further, in assay [3], the “% Activation” value was 399.2% and the pEC50 was 6.56.
Regarding `COCC1CCN(c2cc(C(=O)NS(=O)(=O)N3CCOCC3)nc3c2c(C2CCC2)nn3-c2ccc(F)cc2)CC1` [Compound 671, 3-cyclobutyl-1-(4-fluorophenyl)-4-[4-(methoxymethyl)piperidin-1-yl]-N-(morpholine-4-sulfonyl)-1H-pyrazolo[3,4-b]pyridine-6-carboxamide], in assay [2], the “% Activation” value turned out to be 346.1% and the pEC50 was 6.97. In assay [3], the “% Activation” value was determined as 252.95% and the pEC50 is 6.56.
With `COCC1CCN(c2cc(C(=O)NS(=O)(=O)CCCO)nc3c2c(C2CCC2)nn3-c2ccc(F)cc2)CC1` [Compound 672, 3-cyclobutyl-1-(4-fluorophenyl)-N-(3-hydroxypropane-1-sulfonyl)-4-[4-(methoxymethyl)piperidin-1-yl]-1H-pyrazolo[3,4-b]pyridine-6-carboxamide], the “% Activation” value was found to be 422.4% in assay [2] and 362.9% in assay [3]. Also, the pEC50 in assay [2] was 6.90; in assay [3] it was 6.48.
